Five compounds from ChEMBL document CHEMBL6127022, “Acid-sensitive prodrugs; a promising approach for site-specific and targeted drug release” (Eur J Med Chem, 2024) can be followed below.

By IC50 is commonly meant the point on the concentration scale where inhibition reaches its midpoint.

Test [1] concerns RAW264.7. Nature of the test: Anti-inflammatory activity in LPS-induced mouse RAW264.7 cells assessed as inhibition of TNF-alpha production at 10 uM incubated for 24 hrs by qRT-PCR analysis relative to control. It is filed as functional. More on the design: scale not given: the % may be the effect or the level left.
For test [2], the system named is RAW264.7. Put plainly: Anti-inflammatory activity in LPS-induced mouse RAW264.7 cells assessed as inhibition of IL-6 production at 10 uM incubated for 24 hrs by qRT-PCR analysis relative to control. It is filed as functional. More on the design: scale not given: the % may be the effect or the level left. Background: Real-time PCR tracks product formation cycle by cycle.

Another test deals with HeLa. Nature of the test: cells. Particulars: Homo sapiens, 96 h.
The next test has as its system KB. Nature of the test: Antitumor activity against human KB cells assessed as reduction in cell growth incubated for 96 hrs by MTT assay. It is filed as functional, cell-based. A general note: Tetrazolium assays rely on reduction of a dye to a coloured formazan, in cell work by metabolically active cells.

Each structure is given as a SMILES string. Values after ≈ are worked out from the molar mass of the structure shown.

Description for HeLa: Anticancer activity against human HeLa cells assessed as inhibition of cell growth incubated for 96 hrs by MTT assay

Take `NC(=O)Nc1sc(-c2ccc(F)cc2)cc1C(N)=O`: the Activity in the test with RAW264.7 [1] amounted to 20%. Turning to `CC(C)Cc1ccc(C(C)C(=O)O)cc1` (stereo unspecified) [IBUPROFEN], in the test with RAW264.7 [1], the Activity came to 90%. Regarding `CN(Cc1cnc2nc(N)nc(N)c2n1)c1ccc(C(=O)N[C@@H](CCC(=O)O)C(=O)O)cc1` [METHOTREXATE], the Activity in the test with RAW264.7 [2] is given as 78.5%. For the compound `COc1ccc2cc([C@H](C)C(=O)O)ccc2c1` [NAPROXEN], in the test on RAW264.7 [2], the Activity was found to be 65%. For `CC(=O)O[C@H]1C(=O)[C@@]2(C)[C@H]([C@H](OC(=O)c3ccccc3)[C@]3(O)C[C@H](OC(=O)[C@H](O)[C@@H](NC(=O)c4ccccc4)c4ccccc4)C(C)=C1C3(C)C)[C@]1(OC(C)=O)CO[C@@H]1C[C@@H]2O` [PACLITAXEL], the IC50 in the test with HeLa is 0.9 µg/mL (≈ 1.05 µM); in the test on KB it was 0.18 µg/mL (≈ 0.211 µM).
